The text below walks through data of PMC6271860, “Bioactive 30-Noroleanane Triterpenes from the Pericarps of Akebia trifoliata” (Molecules, 2014).

≈ marks a conversion by molar mass, not a printed value. Counter-ions that a name gives are not always drawn.

For series [1], the system named is B. subtilis (CMCC63501). The series can be described thus: Antibacterial microdilution titre assay (resazurin), MIC. As to conditions: Gram-positive, 37 °C, 5–6 h.
Series [2] deals with S. dysenteriae (CMCC51252). The series is described as above. The class given is cell-based. As to conditions: Shigella dysenteriae.
The subject of series [3] is E. coli (CMCC44102). Described as above. As to conditions: Escherichia coli.
In series [4] the test system is B. cereus (CMCC63302). The series is described as above. As to conditions: Gram-positive, 37 °C, 5–6 h.
For series [5], the system named is S. aureus (CMCC26003). The series is described as above. The following applies: Gram-positive, 37 °C, 5–6 h.
Series [6] deals with S. typhimurium (CMCC44102). Described as above. As to conditions: Salmonella enterica.
In series [7] the test system is MRSA. Described as above. The following applies: for MIC: MRSA, Gram-positive, 37 °C, 5–6 h.
A short description of series [8]: Cytotoxicity, MTT method. As to conditions: human. As to the method: (§1) These compounds were also tested for their in vitro cytotoxicity against three human tumor cell lines, A549 (human lung adenocarcinoma), HeLa (human cervical carcinoma) and HepG2 (human liver hepatocellular carcinoma), using the MTT method as described.
(§2) The three tumor cell lines were generously provided by Kunming Institute of Zoology, Chinese Academy of Sciences. The cytotoxic activities of the tested compounds were assayed according to the MTT method by using 96 well plates. Briefly, the cells were cultured in RPMI-1640 medium, supplemented with 10% fetal bovine serum in a humidified atmosphere with 5% CO2 at 37 °C. One hundred μL of adherent cells at the density of 5 × 10^4 cell/mL was seeded into each well of 96-well cell culture plates and incubated in 5% CO2 at 37 °C for 24 h to form a monolayer on the flat bottoms. Then, removed the supernatant per well and subsequently added with 100 μL of fresh medium and 100 μL of medium containing a test compound. The plate was then incubated in 5% CO2at 37 °C. After 72 h, 20 μL of 5 mg/mL MTT in DMSO was added into each well and incubated for 4 h. The supernatant per well was carefully removed and 150 μL of DMSO was added. The plate was then vortex shaken for 15 min to dissolve blue formazan crystals. The optical density (OD) of each well was measured on a Genois microplate reader (Tecan GENios, Männedorf, Switzerland) at the wavelength of 570 nm. All experiments were performed in triplicate and adriamycin was used as a positive control. In each experiment, each of the tumor cell lines was exposed to the test compound at concentrations of 50, 25, 12.5, 6.25, 3.125, 1.5625 µg/mL. The inhibitory rate of cell growth was calculated according to the following formula: Inhibition rate (%) = (ODcontrol− ODtreated)/ODcontrol× 100%. IC50 values were calculated by SPSS 16.0 statistic software. The values were based on three individual experiments and expressed as means ± standard deviation (SD).
On the technique in general: Tetrazolium assays rely on reduction of a dye to a coloured formazan, in cell work by metabolically active cells.

Series [9] relates to A549 (human lung adenocarcinoma). Kind of series: Cytotoxicity, MTT method. As to conditions: read-out: Cytotoxicity IC50, A549 cells, 72 h, mean ± SD (n = 3). Here is the method: as §1, §2
Series [10] concerns HeLa (human cervical carcinoma). Kind of series: Cytotoxicity, MTT method. The following applies: read-out: Cytotoxicity IC50, HeLa cells, 72 h, mean ± SD (n = 3). As to the method: as §1, §2
Where [11] appears, read: Bacillus subtilis, CMCC63501, B. subtilis (CMCC63501).
Setting [12] is: Bacillus cereus, CMCC63302, B. cereus (CMCC63302).
[13] abbreviates: Staphylococcus aureus, CMCC26003, S. aureus (CMCC26003).
[14] abbreviates: Cytotoxicity IC50, A549 cells, mean ± SD (n = 3).
Setting [15] is: Cytotoxicity IC50, HeLa cells, mean ± SD (n = 3).

Broadly, the MIC is the smallest concentration in the dilution series that meets the test's criterion for growth inhibition. A lower MIC goes with a more susceptible organism. With `CC1=C(C(=O)O)N2C(=O)[C@@H](NC(=O)[C@H](N)C3=CCC=CC3)[C@H]2SC1` [C, cefradine, reference compound], the MIC in series [1] (setting [11]) stood at 200 µg/mL (≈ 572 µM); in series [2], 12.5 µg/mL (≈ 35.8 µM); in series [3] it was 12.5 µg/mL (≈ 35.8 µM); in series [4] (setting [12]) it was 200 µg/mL (≈ 572 µM); in [5] (setting [13]), 50 µg/mL (≈ 143 µM); in series [6] it was 12.5 µg/mL (≈ 35.8 µM). Moreover, the MIC in [7] (Staphylococcus aureus) is more than 200 µg/mL.
The IC50 is the concentration at which inhibition is half-maximal. Turning to `CC1(O)CCC2(C(=O)O)CCC3(C)C(=CCC4C5(C)CC(O)C(O)C(C)(C)C5CCC43C)C2C1` (stereo not drawn) [Compound 1, 2α,3β,20α-trihydroxy-30-norolean-12-en-28-oic acid], the minimum inhibitory concentration (MIC) in series [1] (setting [11]), in series [2], in series [3], in series [4] (setting [12]), in series [5] (setting [13]) and in series [6] was more than 200 µg/mL in each case. In series [7] (Staphylococcus aureus), this molecule gave a minimal inhibitory concentration (MIC) of more than 200 µg/mL. Besides, the IC50 at 72 h in [8], in series [8] (setting [14]) and in series [8] (setting [15]) was more than 100 µM in each case.
For `C=C1CCC2(C(=O)O)CCC3(C)C(=CCC4C5(C)CC(O)C(O)C(C)(C=O)C5CCC43C)C2C1` (stereo not drawn) [Compound 2, 2α,3β-dihydroxy-23-oxo-30-norolean-12,20(29)-dien-28-oic acid], the MIC in series [1] (setting [11]), in series [2], in [3], in [4] (setting [12]), in series [5] (setting [13]) and in series [6] was more than 200 µg/mL in each case. The molecule further yielded an MIC in series [7] (Staphylococcus aureus) of more than 200 µg/mL. Also, the IC50 at 72 h in series [8], in series [8] (setting [14]) and in series [8] (setting [15]) was more than 100 µM each time.
Turning to `C=C1CC[C@]2(C(=O)O)CC[C@]3(C)C(=CCC4[C@@]5(C)CC[C@H](O)C(C)(C)C5CC[C@]43C)C2C1` (stereo partly drawn) [Compound 3, 3β-akebonoic acid], the MIC was 12.5 µg/mL (≈ 28.4 µM) in series [1] (B. subtilis (CMCC63501)); 12.5 to 25 µg/mL (≈ 28.4 to 56.7 µM) in [1] (setting [11]); more than 200 µg/mL in series [2]; more than 200 µg/mL in series [3]; 25 µg/mL (≈ 56.7 µM) in series [4] (B. cereus (CMCC63302)); 12.5 to 25 µg/mL (≈ 28.4 to 56.7 µM) in series [4] (setting [12]). In addition, the MIC in series [5] (S. aureus (CMCC26003)) is 25 µg/mL (≈ 56.7 µM); in series [5] (setting [13]), 12.5 to 25 µg/mL (≈ 28.4 to 56.7 µM); in series [6], more than 200 µg/mL; in [7], 25 µg/mL (≈ 56.7 µM); in series [7] (Staphylococcus aureus), 12.5 to 25 µg/mL (≈ 28.4 to 56.7 µM). For the same molecule, the IC50 at 72 h in series [8] is 52.9 ± 5.28 µM; in series [8] (setting [14]) it was 49.5 ± 8.64 µM; in [8] (setting [15]) it was 28.6 ± 7.41 µM. For the same molecule, in series [7] (MIC compared with kanamycin), the “MIC toward MRSA, fold stronger than the reference compound kanamycin” value is on record as “about five-fold”.
On to `C=C1CC[C@]2(C(=O)O)CC[C@]3(C)C(=CCC4[C@@]5(C)C[C@@H](O)[C@H](O)C(C)(C)C5CC[C@]43C)C2C1` (stereo partly drawn) [Compound 4, 2α,3β-dihydroxy-30-noroleana-12,20(29)-dien-28-oic acid], for which the MIC in series [1] (setting [11]) is 25 µg/mL (≈ 54.7 µM); in series [2], more than 200 µg/mL; in series [3] it was more than 200 µg/mL; in [4] (setting [12]) it was 50 µg/mL (≈ 109 µM); in series [5] (setting [13]), 200 µg/mL (≈ 438 µM); in [6] it was more than 200 µg/mL. In addition, the MIC in series [7] (Staphylococcus aureus) turned out to be 200 µg/mL (≈ 438 µM). Moreover, the IC50 in series [9] was found to be 8.77 ± 0.59 µM. Further, the values for the half-inhibitory concentration (IC50) at 72 h in series [8], in series [8] (setting [14]) and in series [8] (setting [15]) were 14.3 ± 0.49 µM, 8.8 µM and 16.33 ± 0.12 µM, respectively.
Regarding `C=C1CC[C@]2(C(=O)O)CC[C@]3(C)C(=CCC4[C@@]5(C)CC[C@@H](O)C(C)(C)C5CC[C@]43C)C2C1` (stereo partly drawn) [Compound 5, 3α-akebonoic acid], the MIC in series [1] (setting [11]) is 50 µg/mL (≈ 113 µM); in series [2], more than 200 µg/mL; in series [3], more than 200 µg/mL; in series [4] (setting [12]) it was 25 µg/mL (≈ 56.7 µM); in [5] (setting [13]), more than 200 µg/mL; in [6] it was more than 200 µg/mL. Besides, the MIC in [7] (Staphylococcus aureus) is more than 200 µg/mL. The IC50 in [10] was found to be 5.61 µM. Also, the half-inhibitory concentration (IC50) at 72 h in series [8] came to 10.4 ± 1.17 µM; in series [8] (setting [14]) it was 10.6 ± 0.69 µM; in [8] (setting [15]), 5.6 µM.
On to `C=C1CC[C@]2(C(=O)O)CC[C@]3(C)C(=CCC4[C@@]5(C)CC[C@@H](O)[C@](C)(CO)C5CC[C@]43C)C2C1` (stereo partly drawn) [Compound 6, quinatic acid], for which the MIC in [1] (setting [11]) was 12.5 µg/mL (≈ 27.4 µM); in series [2] it was more than 200 µg/mL; in [3] it was more than 200 µg/mL; in series [4] (setting [12]), 50 µg/mL (≈ 109 µM); in series [5] (setting [13]), more than 200 µg/mL; in series [6], more than 200 µg/mL. Further, the MIC in series [7] (Staphylococcus aureus) was more than 200 µg/mL. Besides, the IC50 at 72 h in [8], in series [8] (setting [14]) and in series [8] (setting [15]) was more than 100 µM each time.
With `NC[C@H]1O[C@H](O[C@H]2[C@H](O)[C@@H](O[C@H]3O[C@H](CO)[C@@H](O)[C@H](N)[C@H]3O)[C@H](N)C[C@@H]2N)[C@H](O)[C@@H](O)[C@@H]1O` [K, kanamycin sulfate, reference compound], the MIC in series [1] (setting [11]) was determined as 3.9 µg/mL; in [2], 3.9 µg/mL; in series [3] it was 3.9 µg/mL; in [4] (setting [12]), 3.9 µg/mL; in [5] (setting [13]), 1.9 µg/mL; in series [6], 3.9 µg/mL. This molecule also yielded an MIC in series [7] (Staphylococcus aureus) of 125 µg/mL.
